Assay results taken from patent publication US20230339878A1, “SLC26A3 INHIBITORS AND USE THEREOF” (THE REGENTS OF THE UNIVERSITY OF CALIFORNIA, priority 2018, published 2023).
Entries after “also recorded” stand apart in the source; their conditions may differ.

Key:
[1] = system: mouse mid-jejunal closed loops; test: Closed mid-jejunal loop fluid absorption in mice; assay type: in vivo; settings: 10 µM intraluminal, 30 min
Description: (§1) Female CD1 mice (age 8-10 weeks) were given free access to Pedialyte (per liter: Na^+ 45 mEq, Cl^- 35 mEq, K^+ 20 mEq, dextrose 25 g; Abbott, Abbot Park, IL) but not solid food for 48 h before experiments. Mice were treated with 500 µL mineral oil once a day rectally (last dose 12 h before surgeries) during this period to evacuate the colon. Closed intestinal loops were isolated as described. Mice were anesthetized with isoflurane and body temperature was maintained during surgery at 36-38° C. using a heating pad. A small abdominal incision was made to expose the distal colon, and one closed distal colonic loop (length 1.5-2 cm) was isolated with sutures in each mouse. Loops were injected with 100 µL phosphate-buffered saline (PBS, pH: 7.4, in mM: 137 NaCl, 2.7 KCl, 8 Na2HPO4, 1.8 KH2PO4, 1 CaCl2, 0.5 MgCl2) without and with 10 µM Compound A1 and/or 10 µM tenapanor (MedChemExpress, Monmouth Junction, NJ). The abdominal incision was closed with sutures, and mice were allowed to recover from anesthesia. Colonic loops were removed at 0 and 60 min (in separate mice) and loop length and weight were measured to quantify fluid absorption. Luminal fluid was emptied with a syringe and pH was measured immediately using AB15 pH Meter (Thermo Fisher Scientific, South San Francisco, CA). In separate studies, mid-jejunal loops (length 2-3 cm, 3-4 loops per mouse) were isolated as described above, injected with 100 µL PBS without or with 10 µM Compound A1 and/or 10 µM tenapanor, and excised at 0 and 30 min to measure loop length and weight.

[2] = system: mouse distal colonic closed loops; test: Closed distal colonic loop fluid absorption in mice; assay type: in vivo; settings: 10 µM intraluminal, 60 min
Description: as §1
Closed intestinal loop studies in mice were done to study effects of Compound A1 on fluid absorption. […] Changes in luminal pH were also determined as a semi-quantitative measure of slc26a3-facilitated HCO3^- secretion / C1^- absorption, with slc26a3 inhibition predicted to reduce luminal fluid alkalinization. For these experiments, a phosphate-buffered solution (PBS) without HCO3^- / CO2 was used to avoid confounding effects of luminal carbonic anhydrases. […] Administration of the NHE3 (Na^+/H^+ exchanger 3) inhibitor tenapanor had no effect on weight/length ratio or luminal pH in distal colonic loops.

[3] = system: loperamide-treated wild-type mice; test: Loperamide-induced constipation model in wild-type mice; assay type: in vivo; settings: 5 mg/kg oral gavage 1 hour before loperamide, wild-type mice
Description: Female CD1 mice (age 8-10 weeks) were administered loperamide (0.3 mg/kg, intraperitoneally, Sigma-Aldrich) to produce constipation. Compound A1 (DRAinh-A250) (5 mg/kg, in saline containing vehicle (5% DMSO and 10% Kolliphor HS 15; Sigma-Aldrich)), tenapanor (5 mg/kg, in vehicle), both compounds (5 mg/kg each, in vehicle), or vehicle alone were administered by oral gavage 1 hour before loperamide. After loperamide injection, mice were placed individually in metabolic cages with ad libitum access to food and water. Stool samples were collected for 3 h, and total stool weight and number of fecal pellets were quantified. To measure stool water content, stool samples were dried at 80° C. for 24 h and water content was calculated as [wet weight-dry weight]/wet weight. Similar studies were done in cystic fibrosis (CF) mice (ΔF508 homozygous) lacking functional CFTR.
Constipation Model in MiceDRAinh-A260 and DRAinh-A270 were tested in a loperamide-induced constipation model in mice. Female CD1 mice (age 8-10 weeks) were administered loperamide (0.3 mg/kg, intraperitoneally, in 5% ethanol in PBS, 0.1 mg/mL final concentration) to produce constipation and vehicle in control mice. DRAinh-A260 (5 mg/kg, in saline with 5% DMSO and 10% Kolliphor HS 15) or DRAinh-A270 (1, 3 or 10 mg/kg, in PBS with 5% DMSO and 20% (2- hydroxypropyl)-β-cyclodextrin) or vehicle alone were administered by oral gavage 1 hour before loperamide (FIG. 11A). After loperamide injection, mice were placed individually in metabolic cages with free access to food and water. Stool samples were collected for 3 hours, and total stool weight and number of fecal pellets were quantified. To measure stool water content, stool samples were dried at 80° C. for 24 hours and water content was calculated as [wet weight-dry weight]/wet weight.

NHE3 = target: T1, NHE3 (Homo sapiens, UniProt P48764); settings: Phase 3, IBS-C, treated group (placebo 18.7 %); cited from earlier work
T1 sequence (P48764 26-834): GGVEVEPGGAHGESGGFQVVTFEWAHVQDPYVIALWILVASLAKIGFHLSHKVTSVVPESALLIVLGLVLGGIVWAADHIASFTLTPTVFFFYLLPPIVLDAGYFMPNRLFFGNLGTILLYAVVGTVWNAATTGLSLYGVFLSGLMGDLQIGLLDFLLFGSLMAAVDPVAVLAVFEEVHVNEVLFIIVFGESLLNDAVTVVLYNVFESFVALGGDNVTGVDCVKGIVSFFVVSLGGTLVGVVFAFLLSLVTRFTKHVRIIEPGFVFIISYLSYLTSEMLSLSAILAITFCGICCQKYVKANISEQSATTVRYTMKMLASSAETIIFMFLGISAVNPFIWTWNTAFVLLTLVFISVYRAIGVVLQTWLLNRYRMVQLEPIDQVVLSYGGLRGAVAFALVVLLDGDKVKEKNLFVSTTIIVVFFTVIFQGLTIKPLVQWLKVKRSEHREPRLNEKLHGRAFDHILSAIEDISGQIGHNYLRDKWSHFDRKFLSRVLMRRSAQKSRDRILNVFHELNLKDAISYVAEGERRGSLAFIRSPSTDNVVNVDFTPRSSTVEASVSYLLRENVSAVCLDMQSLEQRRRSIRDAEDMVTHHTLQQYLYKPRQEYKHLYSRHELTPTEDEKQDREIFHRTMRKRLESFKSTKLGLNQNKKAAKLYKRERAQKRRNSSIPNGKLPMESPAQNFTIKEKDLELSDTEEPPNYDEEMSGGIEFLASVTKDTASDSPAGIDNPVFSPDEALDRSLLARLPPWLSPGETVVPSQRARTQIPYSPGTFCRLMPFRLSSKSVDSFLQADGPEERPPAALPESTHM

CN1Cc2c(Cl)cc(Cl)cc2[C@H](c2cccc(S(=O)(=O)NCCOCCOCCNC(=O)NCCCCNC(=O)NCCOCCOCCNS(=O)(=O)c3cccc([C@@H]4CN(C)Cc5c(Cl)cc(Cl)cc54)c3)c2)C1 [tenapanor, reference compound]
loop weight/length ratio (fluid absorption), mid-jejunal loops [1]: fluid absorption was abolished; also recorded: blocked absorption in jejunal
luminal fluid pH, mid-jejunal loops [1]: preventing acidification and producing slight alkalinization
loop weight/length ratio (fluid absorption), distal colonic loops [2]: had no effect
luminal pH, distal colonic loops [2]: had no effect
three-hour stool weight, number of pellets and stool water content [3]: comparably reduced signs of constipation
three-hour stool weight, number of pellets and stool water content ([3]; listed as Tenapanor): partially prevented
combined pain and stool pattern response rate (NHE3): 27%
